Test results taken from patent publication US11716994B2, “Combinations of Yersinia entomophaga and pesticides or other substances” (priority 2017, dated 2023).
Where two headings read alike, the source gives them in different places.

Columns and labels:
[1] = system: black cutworm; test: Leaf disk mortality assay, Y. entomophaga cells with chemical insecticides; conditions: for % Mort. Chem.: black cutworm
[2] = system: fall armyworm; test: Cabbage leaf disk screening of chemical insecticide rates (flubendiamide alone), mortality; assay type: in vivo; conditions: 3rd instar
Description: Chemical insecticides were first screened against insects at a range of rates/concentrations to determine which concentrations would provide a moderate level of activity against the insects. If the chemical rates are too high, it is difficult to observe additional effects provided by the addition of either live Y. entomophaga cells or cell free filtrates of Y. entomophaga cultures.
One example is provided for flubendiamide with fall armyworm. An initial rate was selected that would fall within an expected concentration of active ingredient per volume of water, as indicated on the label of insecticide products containing that active ingredient. For flubendiamide, a concentration of 58.5 mg/L was determined based on these criteria. To create this solution, first a 10× concentration solution was made by dissolving 58.5 mg in 100 mL of acetone. Then, 1:10 dilutions of this solution were made into acetone, resulting in concentrations of the compound of 58.5, 5.85, and 0.585 mg/L. Cabbage leaf disks were dipped in either acetone (controls) or concentrations of flubendiamide at 58.5, 5.85, or 0.585 mg/L in acetone. These were set to dry for 1 hr. […] A total of 10 insects were evaluated for each treatment. Insects were observed daily and the number of dead insects was visually determined (% Mortality).

[3] = system: Yersinia entomophaga; test: CFU counts after exposure of Yersinia entomophaga to insecticides; assay type: cell-based; conditions: 1 hour contact
Procedure, shortened: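 Insecticides at 1× (label-rate based) and 5× or 10× amounts were dried from ethyl acetate as a coat inside tubes. Diluted LB-grown Y. entomophaga culture (1 ml) was added and held 1 hour on the bench. Then 100 μl was plated in triplicate on LB and colonies were counted after 48 hours at 25° C.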

[4] = system: black cutworm; conditions: flubendiamide 0.59 mg/L
Description: To produce cell free filtrates, cultures of Yersinia entomophaga grown in LB medium were centrifuged at 11,448 (g) for 10 minutes. The supernatant was decanted from the centrifuged pellet and filtered through a 0.22 μm filter. Assays were performed to determine concentrations of Yen-TC (toxin complex) using ELISA, and chitinase by measuring chitinase activity on specific substrates. […] This was done to estimate relative potency of the cell free filtrates. Insects were first pre-screened with a range of dilutions of cell free filtrates to select a concentration that provided moderate activity. […] Based on these initial screens, undiluted cell free filtrate was used for cabbage looper, fall armyworm, black cutworm, and Colorado potato beetle. […] In each of the Examples below, this is expressed as 1%.
Cabbage leaf disks were dipped in either acetone (controls and Y. entomophaga alone treatments) or in indoxacarb (Sigma 33969) at 0.53 mg/L in acetone. These were set to dry for 1 hr. […] After the cabbage disks had dried for 1 hr, a single 2nd instar black cutworm was added to each individual cabbage disk. A total of 20 insects were evaluate for each treatment. Insects were observed daily and scored as live or dead.
Cabbage leaf disks were dipped in either acetone (controls and Y. entomophaga alone treatments) or in flubendiamide (Sigma 32801) at 0.59 mg/L in acetone. These were set to dry for 1 hr. […] After the cabbage disks had dried for 1 hr, a single 2nd instar black cutworm was added to each individual cabbage disk. A total of 20 insects were evaluate for each treatment. Insects were observed daily and scored as live or dead.

[5] = system: fall armyworm; test: Leaf disk mortality assay, Y. entomophaga cells with chemical insecticides; conditions: for LT50 (95% confidence intervals) in days: 4th instar; for mortality at 0.59 µg/mL: Spodoptera frugiperda, foliar; for % Mort. Chem.: fall armyworm, Flubendiamide 0.59 mg/L
[6] = system: diamondback moth; test: whole plant or invertebrate; conditions: flubendiamide 0.059 mg/L; for mortality at 0.059 µg/mL: Plutella xylostella, foliar, Abbott's corrected
Description: (§1) These were set to dry for 1 hr.
as §1
These were set to dry for 1 hr. Cabbage disks were then dipped in either 1% Luria broth (LB) media solution (controls and thiacloprid alone treatments) or in 1% cell free filtrate from a culture Y. entomophaga isolate O24G3R (Y. entomophaga alone or in combination with thiacloprid treatments).

[7] = 3rd instar, flubendiamide 0.20 mg/L, isolate O23ZMJ 1×10^4 cfu/mL
[8] = 3rd instar, flubendiamide 0.20 mg/L, isolate O348UX 1×10^4 cfu/mL
[9] = 3rd instar, flubendiamide 0.59 mg/L, isolate O43NEW 1×10^4 cfu/mL

Cc1cc(C(F)(C(F)(F)F)C(F)(F)F)ccc1NC(=O)c1cccc(I)c1C(=O)NC(C)(C)CS(C)(=O)=O [Flubendiamide]
% Mortality (5DAT) ([1]; 3rd instar black cutworm, flubendiamide 0.20 mg/L, Y. entomophaga isolate O24G3R 1 × 10^4 CFU/mL, 5 DAT, Abbott's corrected): 31%
% Mortality (6DAT) ([1]; 3rd instar black cutworm, flubendiamide 0.20 mg/L, Y. entomophaga isolate O24G3R 1 × 10^4 CFU/mL, 6 DAT, Abbott's corrected): 44%
% Mortality (7DAT) ([1]; 3rd instar black cutworm, flubendiamide 0.20 mg/L, Y. entomophaga isolate O24G3R 1 × 10^4 CFU/mL, 7 DAT, Abbott's corrected): 69%
LT50 (95% confidence intervals) in days ([1]; 3rd instar black cutworm, flubendiamide 0.20 mg/L, Y. entomophaga isolate O24G3R 1 × 10^4 CFU/mL, Probit analysis): 4.83 (4.34-5.37) days
% Mortality (5DAT) [1, 7]: 31%
% Mortality (6DAT) [1, 7]: 44%
% Mortality (7DAT) [1, 7]: 69%
LT50 (95% confidence intervals) in days [1, 7]: 4.83 (4.34-5.37) days
% Mortality (5DAT) [1, 8]: 31%
% Mortality (6DAT) [1, 8]: 44%
% Mortality (7DAT) [1, 8]: 69%
LT50 (95% confidence intervals) in days [1, 8]: 4.83 (4.34-5.37) days
% Mortality (4DAT) [1, 9]: 21%
% Mortality (5DAT) [1, 9]: 22%
% Mortality (6DAT) [1, 9]: 44%
LT50 (95% confidence intervals) in days [1, 9]: 4.99 (4.53-5.48) days
% Mort. Chem. ([1]; Flubendiamide 0.2 mg/L, 5 DAT (row with O23ZMJ)): 31%
% Mort. Chem. ([1]; Flubendiamide 0.2 mg/L, 5 DAT (row with O24G3R)): 31%
% Mort. Chem. ([1]; Flubendiamide 0.2 mg/L, 5 DAT (row with O348UX)): 31%
% Mort. Chem. ([1]; Flubendiamide 0.59 mg/L, 6 DAT): 44%
% Mort (4DAT) ([2]; flubendiamide at 0.585 mg/L): 0%
% Mort (5DAT) ([2]; flubendiamide at 0.585 mg/L): 10%
% Mort (6DAT) ([2]; flubendiamide at 0.585 mg/L): 10%
% Mort (7DAT) ([2]; flubendiamide at 0.585 mg/L): 10%
% Mort (8DAT) ([2]; flubendiamide at 0.585 mg/L): 10%
% Mort (11DAT) ([2]; flubendiamide at 0.585 mg/L): 20%
% Mort (12DAT) ([2]; flubendiamide at 0.585 mg/L): 30%
LT50 (95% confidence intervals) ([2]; flubendiamide at 0.585 mg/L): 14.38 days
% Mort (4DAT) ([2]; flubendiamide at 5.85 mg/L): 10%
% Mort (5DAT) ([2]; flubendiamide at 5.85 mg/L): 30%
% Mort (6DAT) ([2]; flubendiamide at 5.85 mg/L): 90%
% Mort (7DAT) ([2]; flubendiamide at 5.85 mg/L): 100%
% Mort (8DAT) ([2]; flubendiamide at 5.85 mg/L): 100%
% Mort (11DAT) ([2]; flubendiamide at 5.85 mg/L): 100%
% Mort (12DAT) ([2]; flubendiamide at 5.85 mg/L): 100%
LT50 (95% confidence intervals) ([2]; flubendiamide at 5.85 mg/L): 4.61 days
% Mort (4DAT) ([2]; flubendiamide at 58.5 mg/L): 70%
% Mort (5DAT) ([2]; flubendiamide at 58.5 mg/L): 90%
% Mort (6DAT) ([2]; flubendiamide at 58.5 mg/L): 100%
% Mort (7DAT) ([2]; flubendiamide at 58.5 mg/L): 100%
% Mort (8DAT) ([2]; flubendiamide at 58.5 mg/L): 100%
% Mort (11DAT) ([2]; flubendiamide at 58.5 mg/L): 100%
% Mort (12DAT) ([2]; flubendiamide at 58.5 mg/L): 100%
LT50 (95% confidence intervals) ([2]; flubendiamide at 58.5 mg/L): 2.88 days
Average CFU ([3]; 0.5 mg insecticide): 328 CFU
Average CFU ([3]; 5.0 mg insecticide): 0 CFU
LT50 (95% confidence intervals) ([4]; 2nd instar black cutworm, undiluted O43NEW filtrate, Probit analysis): 7.05 days
LT50 Chem. ([4]; Black cutworm): 7.05 days
% Mort. Chem. ([4]; Black cutworm, 7 DAT): 42%
% Mortality (5DAT) ([4]; black cutworm, undiluted O43NEW filtrate, 5 DAT, Abbott's corrected): 0%
% Mortality (6DAT) ([4]; black cutworm, undiluted O43NEW filtrate, 6 DAT, Abbott's corrected): 37%
% Mortality (7DAT) ([4]; black cutworm, undiluted O43NEW filtrate, 7 DAT, Abbott's corrected): 42%
% Mortality (8DAT) ([4]; black cutworm, undiluted O43NEW filtrate, 8 DAT, Abbott's corrected): 53%
% Mortality (9DAT) ([4]; black cutworm, undiluted O43NEW filtrate, 9 DAT, Abbott's corrected): 74%
LT50 (95% confidence intervals) ([5]; 3rd instar, flubendiamide 0.59 mg/L, isolate O43NEW 1×10^6 cfu/mL): 18.28 days
LT50 (95% confidence intervals) in days ([5]; flubendiamide 0.59 mg/L, isolate O23ZMJ 1×10^5 cfu/mL): 7.46 (6.86-8.10) days
LT50 (95% confidence intervals) in days ([5]; flubendiamide 0.59 mg/L, isolate O24G3R 1×10^5 cfu/mL): 7.46 (6.86-8.10) days
LT50 (95% confidence intervals) in days ([5]; flubendiamide 0.59 mg/L, isolate O348UX 1×10^5 cfu/mL): 7.46 (6.86-8.10) days
mortality at 0.59 µg/mL ([5]; 96 h, read-out: % Mortality (4DAT), 4th instar, flubendiamide 0.59 mg/L, isolate O23ZMJ 1×10^5 cfu/mL): 0%
mortality at 0.59 µg/mL ([5]; 96 h, read-out: % Mortality (4DAT), 4th instar, flubendiamide 0.59 mg/L, isolate O24G3R 1×10^5 cfu/mL): 0%
mortality at 0.59 µg/mL ([5]; 96 h, read-out: % Mortality (4DAT), 4th instar, flubendiamide 0.59 mg/L, isolate O348UX 1×10^5 cfu/mL): 0%
mortality at 0.59 µg/mL ([5]; 120 h, read-out: % Mortality (5DAT), 4th instar, flubendiamide 0.59 mg/L, isolate O348UX 1×10^5 cfu/mL): 30%
mortality at 0.59 µg/mL ([5]; 144 h, read-out: % Mortality (6DAT), 3rd instar, flubendiamide 0.59 mg/L, isolate O43NEW 1×10^6 cfu/mL): 0%
mortality at 0.59 µg/mL ([5]; 144 h, read-out: % Mortality (6DAT), 4th instar, flubendiamide 0.59 mg/L, isolate O24G3R 1×10^5 cfu/mL): 26%
mortality at 0.59 µg/mL ([5]; 144 h, read-out: % Mortality (6DAT), 4th instar, flubendiamide 0.59 mg/L, isolate O348UX 1×10^5 cfu/mL): 26%
mortality at 0.59 µg/mL ([5]; 168 h, read-out: % Mortality (7DAT), 3rd instar, flubendiamide 0.59 mg/L, isolate O43NEW 1×10^6 cfu/mL): 0%
mortality at 0.59 µg/mL ([5]; 264 h, read-out: % Mortality (11DAT), 3rd instar, flubendiamide 0.59 mg/L, isolate O43NEW 1×10^6 cfu/mL): 18%
mortality at 0.59 µg/mL ([5]; […], read-out: % Mortality (8DAT), 3rd instar, flubendiamide 0.59 mg/L, isolate O43NEW 1×10^6 cfu/mL): 5%
% Mort. Chem. ([5]; 4 DAT): 26%
% Mort. Chem. ([5]; 6 DAT (row with O23ZMJ)): 0%
% Mort. Chem. ([5]; 6 DAT (row with O348UX)): 26%
% Mort. Chem. ([5]; 7 DAT): 0%
LT50 (95% confidence intervals) ([6]; 2nd instar diamondback moth, 1% O43NEW filtrate, Probit analysis): 6.52 days
LT50 Chem. ([6]; Diamondback moth): 6.52 days
% Mort. Chem. ([6]; Diamondback moth, 6 DAT): 32%
mortality at 0.059 µg/mL ([6]; 96 h, read-out: % Mortality (4DAT), diamondback moth, 1% O43NEW filtrate, 4 DAT): 16%
mortality at 0.059 µg/mL ([6]; 120 h, read-out: % Mortality (5DAT), diamondback moth, 1% O43NEW filtrate, 5 DAT): 32%
mortality at 0.059 µg/mL ([6]; 144 h, read-out: % Mortality (6DAT), diamondback moth, 1% O43NEW filtrate, 6 DAT): 32%
mortality at 0.059 µg/mL ([6]; 168 h, read-out: % Mortality (7DAT), diamondback moth, 1% O43NEW filtrate, 7 DAT): 58%
mortality at 0.059 µg/mL ([6]; 264 h, read-out: % Mortality (11DAT), diamondback moth, 1% O43NEW filtrate, 11 DAT): 67%
